{"source": "patent US8946275B2", "about": "“Treatment of cancer using hypoxia activated prodrugs” (Threshold Pharmaceuticals, Inc., priority 2008, dated 2015)", "key": {"[1]": {"tested_on": "PC-3 human prostate cancer cells", "experiment": "PC-3 ectopic xenograft, TH-302/docetaxel dosing schedules", "type": "in vivo, nude mice", "settings": "single agent, TH-302 150 mg/kg ip once or Docetaxol 10 mg/kg iv once"}, "[2]": {"tested_on": "H460 human non-small cell lung cancer", "experiment": "H460 ectopic xenograft, TH-302/docetaxel dosing schedules", "type": "in vivo, nude mice", "settings": "single agent, TH-302 100 mg/kg ip once or Docetaxol 10 mg/kg iv once", "description": "(§1) Anti-tumor activity was evaluated by tumor growth delay (TGD) and tumor growth inhibition (TGI). Body weight change, gross and microscopic assessment of tissue changes, and hematologic assays served for toxicity assessment. Testing in these models was conducted generally as follows. 1×10^6 (H460 human non-small cell lung cancer or HT1080 human fibrosarcoma cells) or 3×10^6 (PC-3 human prostate cancer cells) were implanted in the subcutaneous space of the right flank to obtain ectopic xenograft models. Randomization and dosing was initiated when tumors reached a certain size (100-150 mm^3). API grade of TH-302 was used in all experiments while docetaxel, gemcitabine, cisplatin, pemetrexed, and doxorubicin were purchased from commercial sources.\nThe H460 cells were prepared in 30% Matrigel and 70%. RPMI1640. Mice were anesthetized by isoflurane and were implanted subcutaneously with 1×10^6 cells (in 200 μl) at the flank position. We selected 110 mice bearing similar size tumors (˜100 mm^3) for the study. Mice bearing similar tumor size were randomly assigned into different groups. Treatment started on day 1 (7 days after tumor implantation) except as noted. […] Animals were observed daily and tumor measurements and body weights recorded twice weekly."}, "[3]": {"tested_on": "HT1080 human fibrosarcoma cells", "experiment": "HT1080 ectopic xenograft, TH-302/doxorubicin dosing schedules", "type": "in vivo, nude mice", "settings": "single agent, TH-302 100 mg/kg ip 1/wkx2wks or Dox 4 mg/kg iv 1/wkx2wks", "description": "as §1\n(§2) The H460 cells were prepared in 30% Matrigel and 70%. RPMI1640. Mice were anesthetized by isoflurane and were implanted subcutaneously with 1×10^6 cells (in 200 μl) at the flank position. We selected 110 mice bearing similar size tumors (˜100 mm^3) for the study. Mice bearing similar tumor size were randomly assigned into different groups. Treatment started on day 1 (7 days after tumor implantation) except as noted. TH-302 was administered intraperitoneally (IP) at 150 mg/kg, and docetaxel was administered intravenously (IV) at 10 mg/kg. Animals were observed daily and tumor measurements and body weights recorded twice weekly.\nIn a study conducted substantially as described above except the cells implanted were HT1080 human fibrosarcoma cells and 1×10^6 cells were implanted and mice were randomized into separate groups when their […]"}, "Calu6 NSCLC": {"tested_on": "Calu6 NSCLC", "experiment": "Calu-6 ectopic tumor model, TH-302 with doxorubicin", "type": "in vivo, nude mice", "settings": "Dox 4 mg/kg IV Q7Dx2; TH-302 50 mg/kg IP QDx5/wkx2wks; alone or combined"}, "HT29 colon cancer": {"tested_on": "HT29 colon cancer", "experiment": "HT-29 ectopic tumor model, TH-302 with 5FU", "type": "in vivo, nude mice", "settings": "5-FU 50 mg/kg IV Q3Dx4; TH-302 150 mg/kg IP Q7Dx3; alone or combined"}, "[4]": {"tested_on": "orthotopic prostate cancer PC-3 cells", "experiment": "Orthotopic PC-3 prostate cancer model, TH-302 with Taxol", "type": "in vivo, mice", "settings": "single agents: Taxol 12 mg/kg; TH-302 30 or 50 mg/kg", "description": "TH-302 was tested as monotherapy and in combination with Taxol (paclitaxel) in animals bearing highly invasive and metastatic orthotopic prostate cancer PC-3 cells. Animals were randomized into 6 groups of 8 mice each and then treated either with vehicle; Taxol (12 mg/kg, IV, twice a week for 4 consecutive weeks); TH-302 (30 or 50 mg/kg, IP, once a day for 5 days a week for 2 consecutive weeks); or Taxol in combination with TH-302 (using the same single agent regimens)."}, "H460 NSCLC [5]": {"tested_on": "H460 NSCLC", "experiment": "H460 ectopic tumor model, TH-302 with carboplatin", "type": "in vivo, nude mice", "settings": "Carboplatin 20 mg/kg IV Q7Dx2; TH-302 100 mg/kg IP Q7Dx2; alone or combined", "description": "(§3) Anti-tumor activity was evaluated by tumor growth inhibition (TGI) and tumor growth delay (TGD). Body weight change, gross and microscopic assessment of tissue changes, and hematologic assays served for toxicity assessment.\n(§4) Testing in these models was conducted generally as follows. 1×10^6 H460 human non-small cell lung cancer or HT1080 human fibrosarcoma cells were implanted in the subcutaneous space of the right flank to obtain ectopic xenograft models. For the orthotopic pancreatic model, red-fluorescent protein (RFP) expressing MIA PaCa2 tumors were surgically implanted on the surface of the pancreas. The prostate metastatic model was created by the intraventricular injection of 3×10^6 luciferase-expressing PC-3 cells. […] API grade of TH-302 was used in all experiments while docetaxel, gemcitabine, doxorubicin and pemetrexed were purchased from commercial sources.\nInhibition of tumor growth after administration of TH-302 and carboplatin was greater than for either drug individually in an ectopic tumor model using H460 cells."}, "[6]": {"settings": "single agent, Phase I study; cited from earlier work"}, "H460 NSCLC [7]": {"tested_on": "H460 NSCLC", "experiment": "H460 ectopic lung cancer model, TH-302 with pemetrexed", "type": "in vivo, nude mice", "settings": "PMX 150 mg/kg 1/wkx2wks IP; TH-302 50 mg/kg 5/wkx2wks IP; alone or combined", "description": "as §3, §4"}, "H460 NSCLC cells": {"tested_on": "H460 NSCLC cells", "experiment": "H460 ectopic xenograft, TH-302/pemetrexed dosing schedules", "type": "in vivo, nude mice", "settings": "single agent, TH-302 100 mg/kg ip Q7Dx2 or PMX 150 mg/kg ip Q7Dx2", "description": "as §1, §2\nIn a study conducted substantially as described above except the cells implanted were H460 NSCLC cells and 1×10^6 cells were implanted and mice were randomized into separate groups when their tumors reached ˜100 mm^3 and the chemotherapeutic employed was pemetrexed at a dose of 150 mg/kg given once a week (Q7D) for two weeks IP and the TH-302 was given at 100 mg/kg given once a week (Q7D) for two weeks IP. […]"}}, "data": [{"molecule": "CC(=O)O[C@@]12CO[C@@H]1C[C@H](O)[C@@]1(C)C(=O)[C@H](O)C3=C(C)[C@@H](OC(=O)[C@H](O)[C@@H](NC(=O)OC(C)(C)C)c4ccccc4)C[C@@](O)([C@@H](OC(=O)c4ccccc4)[C@H]21)C3(C)C", "note": "[Docetaxol, docetaxel, reference compound]", "values": [{"measurement": "Days to 500 mm^3", "setting": "[1]", "value": 26, "unit": "days"}, {"measurement": "T/C", "setting": "[1]", "value": 49.1, "unit": "%"}, {"measurement": "TGD500, Days (vs. vehicle)", "setting": "[1]", "value": 10, "unit": "days"}, {"measurement": "TGI", "setting": "[1]", "value": 50.9, "unit": "%"}, {"measurement": "Tn (tumor volume on Day n)", "setting": "[1]; in mm³", "value": 563.22}, {"measurement": "Days to 500 mm^3", "setting": "[2]", "value": 18, "unit": "days"}, {"measurement": "Days to 1000 mm^3", "setting": "[2]", "value": 27, "unit": "days"}, {"measurement": "T/C", "setting": "[2]", "value": 57.6, "unit": "%"}, {"measurement": "TGD500, Days (vs. vehicle)", "setting": "[2]", "value": 5, "unit": "days"}, {"measurement": "TGD1000, Days (vs. vehicle)", "setting": "[2]", "value": 7, "unit": "days"}, {"measurement": "TGI", "setting": "[2]", "value": 42.4, "unit": "%"}, {"measurement": "Tn (tumor volume on Day n)", "setting": "[2]; in mm³", "value": 681.36}]}, {"molecule": "COc1cccc2c1C(=O)c1c(O)c3c(c(O)c1C2=O)C[C@@](O)(C(=O)CO)C[C@@H]3O[C@H]1C[C@H](N)[C@H](O)[C@H](C)O1", "note": "[Dox, doxorubicin, reference compound]", "values": [{"measurement": "Days to 500 mm^3", "setting": "[3]", "value": 24, "unit": "days"}, {"measurement": "T/C", "setting": "[3]", "value": 5.1, "unit": "%"}, {"measurement": "TGD500, Days (vs. vehicle)", "setting": "[3]", "value": 12, "unit": "days"}, {"measurement": "TGI", "setting": "[3]", "value": 94.9, "unit": "%"}, {"measurement": "Tn (tumor volume on Day n)", "setting": "[3]", "value": 154.79}, {"measurement": "Days to 500 mm^3", "setting": "Calu6 NSCLC", "value": 27, "unit": "days"}, {"measurement": "Days to 1000 mm^3", "setting": "Calu6 NSCLC", "value": 35, "unit": "days"}, {"measurement": "T/C", "setting": "Calu6 NSCLC", "value": 67.7, "unit": "%"}, {"measurement": "TGD500, Days (vs. vehicle)", "setting": "Calu6 NSCLC", "value": 9, "unit": "days"}, {"measurement": "TGD1000, Days (vs. vehicle)", "setting": "Calu6 NSCLC", "value": 4, "unit": "days"}, {"measurement": "TGI", "setting": "Calu6 NSCLC", "value": 32.3, "unit": "%"}, {"measurement": "Tn (tumor volume on Day n)", "setting": "Calu6 NSCLC", "value": 773.97}]}, {"molecule": "O=c1[nH]cc(F)c(=O)[nH]1", "note": "[Formulation 5-FU, 5-fluorouracil, reference compound]", "values": [{"measurement": "Days to 500 mm^3", "setting": "HT29 colon cancer", "value": 31, "unit": "days"}, {"measurement": "Days to 1000 mm^3", "setting": "HT29 colon cancer", "value": 43, "unit": "days"}, {"measurement": "T/C", "setting": "HT29 colon cancer", "value": 43.1, "unit": "%"}, {"measurement": "TGD500, Days (vs. vehicle)", "setting": "HT29 colon cancer", "value": 9, "unit": "days"}, {"measurement": "TGD1000, Days (vs. vehicle)", "setting": "HT29 colon cancer", "value": 11, "unit": "days"}, {"measurement": "TGI", "setting": "HT29 colon cancer", "value": 56.9, "unit": "%"}, {"measurement": "Tn (tumor volume on Day n)", "setting": "HT29 colon cancer", "value": 514.11}]}, {"molecule": "CC(=O)O[C@H]1C(=O)[C@@]2(C)[C@H]([C@H](OC(=O)c3ccccc3)[C@]3(O)C[C@H](OC(=O)[C@H](O)[C@@H](NC(=O)c4ccccc4)c4ccccc4)C(C)=C1C3(C)C)[C@]1(OC(C)=O)CO[C@@H]1C[C@@H]2O", "note": "[Taxol, paclitaxel, reference compound]", "values": [{"measurement": "Primary tumor growth during the treatment period", "setting": "[4]", "value": "significantly inhibited primary tumor growth"}]}, {"molecule": "N.N.O=C([O-])C1(C(=O)[O-])CCC1.[Pt+2]", "note": "[Carboplatin, carboplatin, reference compound]", "values": [{"measurement": "Days to 500 mm^3", "setting": "H460 NSCLC [5]", "value": 11.5, "unit": "days"}, {"measurement": "Days to 1000 mm^3", "setting": "H460 NSCLC [5]", "value": 18.5, "unit": "days"}, {"measurement": "T/C", "setting": "H460 NSCLC [5]", "value": 69.7, "unit": "%"}, {"measurement": "TGD500, Days (vs. vehicle)", "setting": "H460 NSCLC [5]", "value": 2, "unit": "days"}, {"measurement": "TGD1000, Days (vs. vehicle)", "setting": "H460 NSCLC [5]", "value": 4.5, "unit": "days"}, {"measurement": "TGI", "setting": "H460 NSCLC [5]", "value": 30.3, "unit": "%"}, {"measurement": "Tn (tumor volume on Day n)", "setting": "H460 NSCLC [5]", "value": 855.6}]}, {"molecule": "CS(=O)(=O)OCCN(CCBr)c1c(C(=O)NCCOP(=O)(O)O)cc([N+](=O)[O-])cc1[N+](=O)[O-]", "note": "[PR104]", "values": [{"measurement": "Maximum tolerated dose (MTD) and recommended dose", "setting": "[6]", "value": "1,100 mg/m^2"}]}, {"molecule": "Nc1nc2[nH]cc(CCc3ccc(C(=O)N[C@@H](CCC(=O)O)C(=O)O)cc3)c2c(=O)[nH]1", "note": "[PMX, pemetrexed, reference compound]", "values": [{"measurement": "Days to 500 mm^3", "setting": "H460 NSCLC [7]", "value": 19, "unit": "days"}, {"measurement": "Days to 1000 mm^3", "setting": "H460 NSCLC [7]", "value": 29, "unit": "days"}, {"measurement": "T/C", "setting": "H460 NSCLC [7]", "value": 70.2, "unit": "%"}, {"measurement": "TGD500, Days (vs. vehicle)", "setting": "H460 NSCLC [7]", "value": 5, "unit": "days"}, {"measurement": "TGD1000, Days (vs. vehicle)", "setting": "H460 NSCLC [7]", "value": 5, "unit": "days"}, {"measurement": "TGI", "setting": "H460 NSCLC [7]", "value": 29.8, "unit": "%"}, {"measurement": "Tn (tumor volume on Day n)", "setting": "H460 NSCLC [7]", "value": 850.21}, {"measurement": "Days to 500 mm^3", "setting": "H460 NSCLC cells", "value": 14, "unit": "days"}, {"measurement": "Days to 1000 mm^3", "setting": "H460 NSCLC cells", "value": 24, "unit": "days"}, {"measurement": "T/C", "setting": "H460 NSCLC cells", "value": 72.4, "unit": "%"}, {"measurement": "TGD500, Days (vs. vehicle)", "setting": "H460 NSCLC cells", "value": 2, "unit": "days"}, {"measurement": "TGD1000, Days (vs. vehicle)", "setting": "H460 NSCLC cells", "value": 3, "unit": "days"}, {"measurement": "TGI", "setting": "H460 NSCLC cells", "value": 27.6, "unit": "%"}, {"measurement": "Tn (tumor volume on Day n)", "setting": "H460 NSCLC cells", "value": 817.45}]}]}
